We go through 13 compounds from patent US4036979A, “Compositions containing 4,5,6,7-tetrahydrobenz[b]thien-4-yl-ureas or derivatives and methods of enhancing growth rate” (American Cyanamid Company, priority 1976, dated 1977).

The nature of assay [1]: Growth enhancement and feed efficiency improvement in sheep fed levels of test compounds (six weeks). As to conditions: for Average Daily Gain (kg)/Lamb, av. / Six-Week Feed/Gain, av.: average of 5 replications; for Average Daily Gain (kg)/Lamb / Six-Week Feed/Gain: replications 1 to 5. The class given is in vivo, sheep (Wether lambs). The source says:
To determine the effect of feeding experimental compounds on sheep performance, Wether lambs are randomly allotted to pens in groups of six. The sheep are weighed and permitted feed and water ad libitum. The feed is weighed daily, and uneaten feed from the previous day is collected and weighed. Test lambs receive the same diet as control animals but with the addition of experimental compound at a concentration of either 15 or 60 ppm. At the end of the six-week treatment period, the lambs are again weighed, and total feed is calculated.
In these tests, five replicates of six lambs each per treatment are used.

Assay [2] in a line: Mouse Growth Regulant Tests (12-day weight gain over controls, compound in diet). It counts as in vivo, CFI female mice. The note with it: Mus musculus, feed or water, 288 h; for change in vivo at 400 ppm: 400 ppm in diet; for change in vivo at 50 ppm: 50 ppm in diet; for change in vivo at 200 ppm: 200 ppm in diet. How it is done:
CFI female mice from Carworth Farms are received when they are six weeks old. They are housed ten to a cage in air-conditioned rooms (72° F. to 76° F.) with automatically controlled lights, 14 hours on and 10 hours off. The basal diet used in these studies is Purina Laboratory Chow (see description below), which is supplied ad libitum. Water is also allowed ad libitum.
Thirteen days after arrival, the mice are weighed in groups of ten and assigned at random to the different treatments. Twelve days later the mice are weighed again and the experiment terminated. At least three cages (30 mice) of untreated controls are included in each test. Test data are provided in Tables VI, VII, VIII, and IX below wherein data are reported as percent weight gain over controls. Unless otherwise indicated in these tables, all compounds tested were dl-racemic mixtures. The following is a description of the diet to which the growth promoting compounds were added.

Molecules are shown by their SMILES. Values joined by “and” are separate entries in the source; they are usually repeats but may differ in a detail not shown here. Equal values may be shown once.

Regarding `NC(=O)NC1CCC(=O)c2sccc21` (centres unmarked) [Compound B, 4,5,6,7-tetrahydro-7-oxobenzo[b]thien-4-ylurea], in assay [1] (15 ppm in feed), the “Average Daily Gain (kg)/Lamb, av.” value came to 0.202 kg; the “Six-Week Feed/Gain, av.” value was found to be 6.216; the “Average Daily Gain (kg)/Lamb” value was 0.187 kg and 0.208 kg and 0.218 kg and 0.186 kg and 0.210 kg; the “Six-Week Feed/Gain” value was 6.785 and 6.067 and 5.344 and 6.795 and 6.089. Further, in assay [1] (60 ppm in feed), the “Average Daily Gain (kg)/Lamb, av.” value turned out to be 0.208 kg; the “Six-Week Feed/Gain, av.” value worked out at 5.151; the “Average Daily Gain (kg)/Lamb” value is 0.216 kg and 0.207 kg and 0.237 kg and 0.189 kg and 0.190 kg; the “Six-Week Feed/Gain” value is 6.116 and 6.263 and 5.144 and 6.723 and 6.506.
The compound `C=CCNC(=O)NC1CCCc2sccc21` (centres unmarked) [Table VI: O,H,H,H,H,CH2CHCH2] showed a change in vivo at 400 ppm in assay [2] (Table VI) of 48.4%.
Regarding `CNC(=O)NC1CCCc2sccc21` (centres unmarked) [Table VI: O,H,H,H,H,CH3, 1-methyl-3-(4,5,6,7-tetrahydrobenzo[b]thien-4-yl)urea], in assay [2] (Table VI), the change in vivo at 50 ppm was 61.8% and the change in vivo at 400 ppm amounted to 134%.
With `CON(C)C(=O)NC1CCC(=O)c2sccc21` (centres unmarked) [Table VII: O,CH3,OCH3, 1-methoxy-1-methyl-3-(4,5,6,7-tetrahydro-7-oxobenzo[b]thien-4-yl)urea], the change in vivo at 200 ppm in assay [2] (Table VII) came out at 62.6%.
Compound `CNC(=S)NC1CCCc2sc(C)cc21` (centres unmarked) [Table VI: S,CH3,H,H,CH3,H] yielded a change in vivo at 400 ppm in assay [2] (Table VI) of 88.5%.
Regarding `CCNC(=O)NC1CCCc2sccc21` (centres unmarked) [Table VI: O,H,H,H,H,C2H5, 1-ethyl-3-(4,5,6,7-tetrahydrobenzo[b]thien-4-yl)urea], in assay [2] (Table VI), the change in vivo at 50 ppm turned out to be 40.3%, the change in vivo at 200 ppm is 87.6% and the change in vivo at 400 ppm worked out at 87.6%.
The compound `NC(=O)NC1CCCC(=O)c2sccc21` (centres unmarked) [5,6,7,8-tetrahydro-4H-8-oxocyclohepta[b]thien-4-ylurea] registered a change in vivo at 400 ppm in assay [2] (Table IX) of 68.8%.
In assay [2] (Table VIII), `COCNC(=O)NC1CCC(O)c2sccc21` (centres unmarked) [Table VIII: O,H,CH2OCH3, 1-(methoxymethyl)-3-(4,5,6,7-tetrahydro-7-hydroxybenzo[b]thien-4-yl)urea] returned a change in vivo at 400 ppm of 124%.
On to `CCC(C)NC(=O)NC1CCCc2sc(C)cc21` (centres unmarked) [Table VI: O,CH3,H,H,2-butyl,H], for which the change in vivo at 400 ppm in assay [2] (Table VI) was determined as 2%.
As for `NC(=O)NC1CCCc2sc(Br)cc21` (centres unmarked) [Table VI: O,Br,H,H,H,H, 2-bromo-4,5,6,7-tetrahydrobenzo[b]-thien-4-ylurea], the change in vivo at 400 ppm in assay [2] (Table VI) amounted to 76.3%.
Same read-out and setting: then `O=C(NCc1ccc(Cl)cc1)NC1CCCc2sccc21` (centres unmarked), with 1%.
Consider `C=CCNC(=O)NC1CCC(=O)c2sccc21` (centres unmarked) [Table VII: O,H,CH2CHCH2], for which the change in vivo at 400 ppm in assay [2] (Table VII) was determined as 58.7%.
In assay [2] (Table VII), `NC(=O)NC1CCC(=O)c2sccc21` (single isomer, unassigned; (+)) [Table VII: O,H,H (dextrorotatory enantiomorph), (+)-4,5,6,7-tetrahydro-7-oxobenzo[b]thien-4-ylurea] had a change in vivo at 200 ppm of 9.4%.
